Measured values reported in ChEMBL document CHEMBL1155069, “Beta-ketophosphonates as beta-lactamase inhibitors: Intramolecular cooperativity between the hydrophobic subsites of a class D beta-lactamase” (Bioorg Med Chem, 2008).

Experiments:
[1] = Inhibition of Escherichia coli TEM2 class A beta-lactamase by spectrophotometry
[2] = Inhibition of Enterobacter cloacae P99 class C beta-lactamase by spectrophotometry
[3] = Inhibition of Escherichia coli OXA1 class D beta-lactamase by spectrophotometry
[4] = Inhibition of Escherichia coli OXA10 class D beta-lactamase by spectrophotometry

| Structure (SMILES) | Ki [1] [µM] | Ki [2] [µM] | Ki [3] [µM] | Ki [4] [µM] |
| --- | --- | --- | --- | --- |
| O=C(CP(=O)(O)OCc1ccccc1)c1nc2ccccc2s1 | 3600 | 24 | 170 |  |
| O=C(CP(=O)(O)OCc1ccc(-c2ccccc2)cc1)c1ccc(-c2ccccc2)cc1 |  | 74 | 6 | 200 |
| O=C(CP(=O)(O)OCc1ccccc1)c1ccc(-c2ccccc2)cc1 | > 1000 | 190 | 230 | > 1000 |
| O=C(CP(=O)(O)Oc1ccccc1)c1ccc(-c2ccccc2)cc1 | 920 | 100 | 140 |  |
| O=C(CP(=O)(O)OCc1ccccc1)c1ccc2[nH]c(=O)oc2c1 | 1500 | 70 | 270 |  |
| Cc1onc(-c2ccccc2Cl)c1C(=O)CP(=O)(O)OCc1ccccc1 | > 1000 | > 1000 | 430 |  |
| O=C(CP(=O)(O)OCc1ccc(-c2ccccc2)cc1)c1ccccc1 |  |  | 200 | > 1000 |
| O=P(O)(CC(O)c1ccccc1)OCc1ccccc1 (racemic) | > 1000 | 1080 | 440 |  |
| O=P(O)(CC(O)c1ccc(-c2ccccc2)cc1)OCc1ccccc1 (racemic) | > 1000 | 260 | 300 |  |
| O=C(CP(=O)(O)OCc1ccccc1)c1ccccc1 [SODIUM BENZYL PHENACYLPHOSPHONATE] | 150 | 670 | 640 | > 1000 |
| O=C(CP(=O)(O)Oc1ccccc1)c1c(F)c(F)c(F)c(F)c1F [SODIUM PHENYL PENTAFLUOROPHENACYLPHOSPHONATE] | 475 | 350 | 380 | > 1000 |
| O=C(CP(=O)(O)Oc1ccccc1)c1ccccc1 [SODIUM PHENYL PHENACYLPHOSPHONATE] |  | 200 | 1050 | > 1000 |
